Experiments:
[1] = In vitro release rate from vaginal rings; type: physicochemical; conditions: for in vitro release rate: vaginal ring, 20% load W/W, redistilled water, 37 C
Description: Thread was used to suspend the rings prepared in example 1 individually in 500 mL wide mouth polyethylene bottles with screw caps. 400 mL of redistilled water was added, and the bottles were placed in a shaking water bath at 37 C. The bath was set to make 100 one-inch strokes per minute. The bathing solution was changed every 24 hours. The CDB-2914 concentration in the aqueous medium was measured via HPLC to determine the release rate of CDB-2914.
Using the same in vitro release rate analysis, vaginal rings were prepared containing either CDB-2914 (20% load, W/W) or mifepristone (20% load, W/W) with several different diameters of silicone tubes, and with tubes containing 18% ethylene vinyl acetate (EVA) as a rate-limiting layer. The rings were prepared by mixing CDB-2914 in a silicone elastomer matrix that was filled into a silicone tube. Upon polymerization, tube was cut into a 16 cm length and the two ends were joined with medical adhesive to form a ring. This vaginal ring has an inner layer of silicone rubber and active agent, and an outer, rate limiting layer. With a silicone tube containing 18% EVA, CDB-2914 was released at the rate of about 96 μg/ring/day, whereas the release of mifepristone was negligible. Using silicone tube C, CDB-2914 was diffused out at more than a 3-fold higher rate than mifepristone (160 μg/ring/day vs. 48 μg/ring/day).

[2] = Pharmacokinetic study of vaginal rings in women (serum levels by radioimmunoassay and LC/MS); type: in vivo
Description: A pharmacokinetic study was conducted abroad in two clinics. Radioimmunoassay and liquid chromatography/mass spectroscopic method (LC/MS) were used to measure the serum levels of CDB-2914 and its immunoreactive metabolites. […] After insertion of the ring into the subjects, CDB-2914 was absorbed into the blood stream, increased continuously and reached a plateau at approximately 7 days post-insertion (2-3 ng/mL). Serum levels decreased upon removal of ring at Day 29 (See FIGS. 5A and 5B).

[3] = Water solubility; type: physicochemical
[4] = silicone tube containing 18% EVA as rate-limiting layer

SMILES | release rate relative to mifepristone ([1]; silicone tube C) [fold] | in vitro release rate ([1]; silicone tube C) [μg/ring/day] | in vitro release rate [1, 4] | serum levels upon removal of ring ([2]; ring removed at Day 29) | bursting release immediately after insertion of the rings ([2]; vaginal ring) | serum concentration compared to Nestorone (NES) ([2]; vaginal ring) | time to reach serum plateau ([2]; vaginal ring) | serum level at plateau ([2]; vaginal ring, plateau at approximately 7 days post-insertion) [ng/mL] | water solubility [3]
CC(=O)O[C@]1(C(C)=O)CC[C@H]2[C@@H]3CCC4=CC(=O)CCC4=C3[C@@H](c3ccc(N(C)C)cc3)C[C@@]21C [CDB-2914, 17α-acetoxy-11β-(4-N,N-dimethylaminophenyl)-19-norpregna-4,9-diene-3,20-dione] | > 3 | 160 | about 96 μg/ring/day | decreased | No bursting release | higher than that of Nestorone | approximately 7 days post-insertion | 2 to 3 | not water soluble
CC#C[C@]1(O)CC[C@H]2[C@@H]3CCC4=CC(=O)CCC4=C3[C@@H](c3ccc(N(C)C)cc3)C[C@@]21C [mifepristone, reference compound] |  | 48 | negligible |  |  |  |  |  | 
